In ChEMBL document CHEMBL1130993, “1,2-disubstituted cyclohexane derived tripeptide aldehydes as novel selective thrombin inhibitors” (Bioorg Med Chem Lett, 1998):
Blank lines part the entries; values can stand above or below the compound they belong to.

Tests used:
[1] = target: T1, Prothrombin (Homo sapiens, UniProt P00734); test: Compound was evaluated for the inhibition of thrombin using the synthetic substrate chromozym TH
[2] = target: T1, Prothrombin; test: Compound was evaluated for percent inhibition of thrombin using the synthetic substrate chromozym TH at 100 uM
[3] = Compound was evaluated for IC50 ratio between human plasmin and thrombin
[4] = Compound was evaluated for IC50 ratio between human t-PA and thrombin

SMILES: CNC(Cc1ccccc1)C(=O)N[C@H]1CCCC[C@H]1C(=O)N[C@@H](C=O)CCCN=C(N)N (stereo partly drawn)
inhibition [2]: 6%

SMILES: CNC(Cc1ccccc1)C(=O)N[C@@H]1CCCC[C@@H]1C(=O)N[C@@H](C=O)CCCN=C(N)N (stereo partly drawn)
inhibition [2]: 1%

SMILES: CN[C@H](Cc1ccccc1)C(=O)N1CCC[C@H]1C(=O)N[C@H](C=O)CCCN=C(N)N [EFEGATRAN]
IC50 [1]: 0.046 µM

SMILES: CNC(Cc1ccc2ccccc2c1)C(=O)N[C@H]1CCCC[C@H]1C(=O)N[C@@H](C=O)CCCN=C(N)N (stereo partly drawn)
Selectivity [3]: 4540
IC50 [1]: 0.022 µM
Selectivity [4]: > 5000

SMILES: CNC(Cc1ccccc1)C(=O)N[C@H]1CCCC[C@@H]1C(=O)N[C@@H](C=O)CCCN=C(N)N (stereo partly drawn)
inhibition [2]: 39%

SMILES: CN[C@H](Cc1ccccc1)C(=O)N1CCC[C@H]1C(=O)N[C@H](C=O)CCCNC(=N)N
Selectivity [3]: 413

The remaining lines, values ahead:

IC50 [1]: 84 µM
inhibition [2]: 100%
SMILES: CN(CCc1ccccc1)C(=O)C1CCCCC1C(=O)N[C@@H](C=O)CCCN=C(N)N (stereo partly drawn)

Selectivity [3]: 67
IC50 [1]: 12 µM
inhibition [2]: 100%
Selectivity [4]: 308
SMILES: CN(CCc1ccccc1)C(=O)[C@@H]1CCCC[C@@H]1C(=O)N[C@@H](C=O)CCCN=C(N)N

inhibition [2]: 15%
SMILES: CN(CCc1ccccc1)C(=O)[C@H]1CCCC[C@@H]1C(=O)N[C@@H](C=O)CCCN=C(N)N

inhibition [2]: 36%
SMILES: CN(Cc1ccccc1)C(=O)C1CCCCC1C(=O)N[C@@H](C=O)CCCN=C(N)N (stereo partly drawn)

inhibition [2]: 14%
SMILES: CN(CCc1ccccc1)C(=O)[C@@H]1CCCC[C@H]1C(=O)N[C@@H](C=O)CCCN=C(N)N

Selectivity [3]: 38
IC50 [1]: 4 µM
inhibition [2]: 100%
Selectivity [4]: 1000
SMILES: CNC(Cc1ccccc1)C(=O)N[C@@H]1CCCC[C@H]1C(=O)N[C@@H](C=O)CCCN=C(N)N (stereo partly drawn)

inhibition [2]: 27%
SMILES: CN(Cc1ccccc1)C(=O)[C@H]1CCCC[C@@H]1C(=O)N[C@@H](C=O)CCCN=C(N)N

inhibition [2]: 8%
SMILES: CN(Cc1ccccc1)C(=O)[C@@H]1CCCC[C@H]1C(=O)N[C@@H](C=O)CCCN=C(N)N
